For 30 compounds, IC50 and metabolised results are on record in ChEMBL document CHEMBL4152386, “Discovery of a Novel Inhaled PI3Kδ Inhibitor for the Treatment of Respiratory Diseases” (J Med Chem, 2018).

The target in data set [1] is Phosphatidylinositol 4,5-bisphosphate 3-kinase catalytic subunit gamma isoform (Homo sapiens, UniProt P48736). Description: Inhibition of recombinant human N-terminal His6-tagged full length p110gamma using PIP2 as substrate preincubated for 30 mins followed by substrate addition by HTRF assay. (In general: TR-FRET usually uses a lanthanide donor and a delayed reading to cut background.)

Data set [2] has as its target PI3-kinase p110-delta/p85-alpha (Homo sapiens, UniProt O00329).
Description: Inhibition of recombinant human N-terminal His-tagged full length p110delta/recombinant human full length p85alpha using PIP2 as substrate preincubated for 30 mins followed by substrate addition by HTRF assay
Data set [3] has as its target PI3-kinase p110-alpha/p85-alpha (Homo sapiens, UniProt P42336).
Description: Inhibition of recombinant human N-terminal His6-tagged full length p110alpha/recombinant human full length p85alpha using PIP2 as substrate preincubated for 30 mins followed by substrate addition by HTRF assay
The target of another data set is PI3K p110 beta/p85 alpha (Homo sapiens, UniProt P42338).
A short description of data set [4]: Drug metabolism in rat liver microsomes assessed as disappearance of parent compound at 5 uM after 30 mins in presence of NADPH by UPLC-MS/MS analysis. Type of data set: ADME, microsome. To be noted: read-out: Drug metabolism. (In general: Microsomes from liver hold many membrane-bound enzymes, among them those of drug oxidation.)
Data set [5] can be described thus: Drug metabolism in human liver microsomes assessed as disappearance of parent compound at 5 uM after 30 mins in presence of NADPH by UPLC-MS/MS analysis. The following applies: read-out: Drug metabolism. Type of data set: ADME, microsome.
Data set [6] can be described thus: Drug metabolism in human liver microsomes assessed as disappearance of parent compound at 5 uM preincubated for 3 mins followed UDPG addition and measured after 120 mins by UPLC-MS/MS analysis. The class given is ADME, microsome. To be noted: read-out: Drug metabolism.
Data set [7] in a line: Drug metabolism in rat liver microsomes assessed as disappearance of parent compound at 5 uM preincubated for 3 mins followed UDPG addition and measured after 120 mins by UPLC-MS/MS analysis. The class given is ADME, microsome. To be noted: read-out: Drug metabolism.

Sequence of Phosphatidylinositol 4,5-bisphosphate 3-kinase catalytic subunit gamma isoform (P48736 whole entry, canonical isoform): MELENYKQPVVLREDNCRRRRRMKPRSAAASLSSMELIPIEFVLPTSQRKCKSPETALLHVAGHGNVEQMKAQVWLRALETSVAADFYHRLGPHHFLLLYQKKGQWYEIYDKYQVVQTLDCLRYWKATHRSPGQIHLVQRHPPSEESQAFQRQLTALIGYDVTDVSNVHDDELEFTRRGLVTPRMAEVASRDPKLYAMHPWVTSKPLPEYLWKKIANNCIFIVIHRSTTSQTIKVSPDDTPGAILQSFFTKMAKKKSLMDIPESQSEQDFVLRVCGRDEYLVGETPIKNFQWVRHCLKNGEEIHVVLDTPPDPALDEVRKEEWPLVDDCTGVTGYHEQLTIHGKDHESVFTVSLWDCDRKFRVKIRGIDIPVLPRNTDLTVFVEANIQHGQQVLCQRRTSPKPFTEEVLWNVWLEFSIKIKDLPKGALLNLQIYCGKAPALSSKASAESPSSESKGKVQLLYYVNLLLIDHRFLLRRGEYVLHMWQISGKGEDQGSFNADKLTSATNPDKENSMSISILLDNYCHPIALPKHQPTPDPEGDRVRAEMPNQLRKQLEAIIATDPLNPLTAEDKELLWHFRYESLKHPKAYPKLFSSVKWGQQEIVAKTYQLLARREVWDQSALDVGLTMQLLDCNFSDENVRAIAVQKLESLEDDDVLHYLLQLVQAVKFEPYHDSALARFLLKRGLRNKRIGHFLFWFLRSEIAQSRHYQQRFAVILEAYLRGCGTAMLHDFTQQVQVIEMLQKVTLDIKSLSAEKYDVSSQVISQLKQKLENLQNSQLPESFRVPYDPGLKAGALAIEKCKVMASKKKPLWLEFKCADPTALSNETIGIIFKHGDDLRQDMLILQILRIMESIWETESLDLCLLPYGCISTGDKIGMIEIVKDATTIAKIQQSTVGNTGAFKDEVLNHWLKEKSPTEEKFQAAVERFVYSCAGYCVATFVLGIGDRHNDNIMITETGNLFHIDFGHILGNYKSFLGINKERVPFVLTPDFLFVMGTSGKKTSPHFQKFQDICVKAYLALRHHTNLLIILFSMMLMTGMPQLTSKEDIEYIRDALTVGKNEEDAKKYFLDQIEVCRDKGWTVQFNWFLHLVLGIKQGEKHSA
Sequence of PI3-kinase p110-alpha/p85-alpha (P27986 whole entry): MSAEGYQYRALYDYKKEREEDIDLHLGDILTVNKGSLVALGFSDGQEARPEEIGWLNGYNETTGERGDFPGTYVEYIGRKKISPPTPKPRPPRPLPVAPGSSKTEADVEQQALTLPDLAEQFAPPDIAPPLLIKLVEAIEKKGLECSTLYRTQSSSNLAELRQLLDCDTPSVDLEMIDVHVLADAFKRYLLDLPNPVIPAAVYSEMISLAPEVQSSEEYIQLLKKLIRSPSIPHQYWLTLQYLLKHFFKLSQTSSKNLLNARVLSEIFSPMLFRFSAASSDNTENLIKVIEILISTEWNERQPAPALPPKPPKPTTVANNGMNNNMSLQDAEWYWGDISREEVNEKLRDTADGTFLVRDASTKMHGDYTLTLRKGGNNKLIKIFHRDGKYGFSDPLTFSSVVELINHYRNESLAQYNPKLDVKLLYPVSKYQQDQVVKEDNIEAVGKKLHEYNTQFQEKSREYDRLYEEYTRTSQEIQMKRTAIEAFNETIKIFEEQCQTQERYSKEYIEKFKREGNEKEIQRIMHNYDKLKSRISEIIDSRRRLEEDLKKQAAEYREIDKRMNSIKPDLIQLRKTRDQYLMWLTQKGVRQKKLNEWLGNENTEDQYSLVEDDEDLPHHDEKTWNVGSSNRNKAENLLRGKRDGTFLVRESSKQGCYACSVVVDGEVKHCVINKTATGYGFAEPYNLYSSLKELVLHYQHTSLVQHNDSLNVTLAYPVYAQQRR
Sequence of PI3-kinase p110-alpha/p85-alpha (P42336 whole entry): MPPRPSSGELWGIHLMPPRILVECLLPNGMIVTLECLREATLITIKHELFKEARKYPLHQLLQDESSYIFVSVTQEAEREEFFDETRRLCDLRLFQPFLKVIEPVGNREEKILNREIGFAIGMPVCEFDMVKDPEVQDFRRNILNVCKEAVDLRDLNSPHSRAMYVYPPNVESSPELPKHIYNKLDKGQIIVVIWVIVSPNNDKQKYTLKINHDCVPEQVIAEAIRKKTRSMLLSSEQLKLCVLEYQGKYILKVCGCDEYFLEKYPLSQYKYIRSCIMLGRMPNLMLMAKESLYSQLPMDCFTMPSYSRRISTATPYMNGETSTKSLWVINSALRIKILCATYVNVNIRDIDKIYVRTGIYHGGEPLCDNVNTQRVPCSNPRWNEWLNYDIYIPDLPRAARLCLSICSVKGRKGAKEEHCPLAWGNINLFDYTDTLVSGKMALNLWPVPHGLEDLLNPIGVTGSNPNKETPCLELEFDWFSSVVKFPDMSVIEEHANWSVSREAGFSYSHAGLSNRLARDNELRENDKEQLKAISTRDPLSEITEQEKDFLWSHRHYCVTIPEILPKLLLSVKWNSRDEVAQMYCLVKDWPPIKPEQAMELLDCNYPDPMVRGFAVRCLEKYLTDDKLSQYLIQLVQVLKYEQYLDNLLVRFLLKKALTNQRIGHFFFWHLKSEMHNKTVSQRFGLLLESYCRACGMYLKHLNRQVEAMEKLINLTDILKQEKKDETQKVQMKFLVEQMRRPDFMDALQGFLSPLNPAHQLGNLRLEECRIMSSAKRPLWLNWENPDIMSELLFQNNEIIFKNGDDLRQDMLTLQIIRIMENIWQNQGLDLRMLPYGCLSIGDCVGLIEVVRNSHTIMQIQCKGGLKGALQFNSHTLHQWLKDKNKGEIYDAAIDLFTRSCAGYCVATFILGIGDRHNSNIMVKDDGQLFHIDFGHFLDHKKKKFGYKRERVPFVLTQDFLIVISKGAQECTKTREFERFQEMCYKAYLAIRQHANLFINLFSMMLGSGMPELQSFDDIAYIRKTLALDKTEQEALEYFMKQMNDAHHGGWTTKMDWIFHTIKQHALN
Sequence of PI3-kinase p110-delta/p85-alpha (P27986 whole entry): as the sequence (P27986 whole entry) above
Sequence of PI3-kinase p110-delta/p85-alpha (O00329 whole entry): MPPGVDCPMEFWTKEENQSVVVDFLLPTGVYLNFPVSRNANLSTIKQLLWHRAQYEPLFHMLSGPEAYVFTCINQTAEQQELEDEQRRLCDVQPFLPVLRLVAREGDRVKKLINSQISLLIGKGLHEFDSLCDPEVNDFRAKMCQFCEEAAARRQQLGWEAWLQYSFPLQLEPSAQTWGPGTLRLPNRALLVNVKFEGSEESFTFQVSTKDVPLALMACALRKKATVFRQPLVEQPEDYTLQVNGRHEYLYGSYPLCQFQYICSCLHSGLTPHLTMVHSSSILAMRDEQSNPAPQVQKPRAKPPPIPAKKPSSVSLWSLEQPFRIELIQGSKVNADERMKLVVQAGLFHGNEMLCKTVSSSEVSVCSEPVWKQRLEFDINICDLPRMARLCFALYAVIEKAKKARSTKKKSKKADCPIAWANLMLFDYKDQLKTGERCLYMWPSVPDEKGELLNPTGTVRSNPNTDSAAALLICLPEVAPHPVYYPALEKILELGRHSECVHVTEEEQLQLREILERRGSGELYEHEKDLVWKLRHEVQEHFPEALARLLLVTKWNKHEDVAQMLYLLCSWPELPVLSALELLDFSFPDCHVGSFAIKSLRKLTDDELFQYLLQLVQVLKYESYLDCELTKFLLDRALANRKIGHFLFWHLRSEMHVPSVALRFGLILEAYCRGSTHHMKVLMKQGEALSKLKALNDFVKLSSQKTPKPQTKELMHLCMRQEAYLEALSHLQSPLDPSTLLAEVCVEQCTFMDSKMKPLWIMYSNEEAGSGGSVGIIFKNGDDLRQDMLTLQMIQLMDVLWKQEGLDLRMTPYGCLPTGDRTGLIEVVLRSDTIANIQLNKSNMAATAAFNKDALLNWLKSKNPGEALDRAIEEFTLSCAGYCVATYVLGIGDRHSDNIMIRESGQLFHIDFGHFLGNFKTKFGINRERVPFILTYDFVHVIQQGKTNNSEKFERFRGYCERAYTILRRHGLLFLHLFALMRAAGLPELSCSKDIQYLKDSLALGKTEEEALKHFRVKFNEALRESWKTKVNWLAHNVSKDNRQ
Sequence of PI3K p110 beta/p85 alpha (P27986 whole entry): as the sequence (P27986 whole entry) above
Sequence of PI3K p110 beta/p85 alpha (P42338 whole entry): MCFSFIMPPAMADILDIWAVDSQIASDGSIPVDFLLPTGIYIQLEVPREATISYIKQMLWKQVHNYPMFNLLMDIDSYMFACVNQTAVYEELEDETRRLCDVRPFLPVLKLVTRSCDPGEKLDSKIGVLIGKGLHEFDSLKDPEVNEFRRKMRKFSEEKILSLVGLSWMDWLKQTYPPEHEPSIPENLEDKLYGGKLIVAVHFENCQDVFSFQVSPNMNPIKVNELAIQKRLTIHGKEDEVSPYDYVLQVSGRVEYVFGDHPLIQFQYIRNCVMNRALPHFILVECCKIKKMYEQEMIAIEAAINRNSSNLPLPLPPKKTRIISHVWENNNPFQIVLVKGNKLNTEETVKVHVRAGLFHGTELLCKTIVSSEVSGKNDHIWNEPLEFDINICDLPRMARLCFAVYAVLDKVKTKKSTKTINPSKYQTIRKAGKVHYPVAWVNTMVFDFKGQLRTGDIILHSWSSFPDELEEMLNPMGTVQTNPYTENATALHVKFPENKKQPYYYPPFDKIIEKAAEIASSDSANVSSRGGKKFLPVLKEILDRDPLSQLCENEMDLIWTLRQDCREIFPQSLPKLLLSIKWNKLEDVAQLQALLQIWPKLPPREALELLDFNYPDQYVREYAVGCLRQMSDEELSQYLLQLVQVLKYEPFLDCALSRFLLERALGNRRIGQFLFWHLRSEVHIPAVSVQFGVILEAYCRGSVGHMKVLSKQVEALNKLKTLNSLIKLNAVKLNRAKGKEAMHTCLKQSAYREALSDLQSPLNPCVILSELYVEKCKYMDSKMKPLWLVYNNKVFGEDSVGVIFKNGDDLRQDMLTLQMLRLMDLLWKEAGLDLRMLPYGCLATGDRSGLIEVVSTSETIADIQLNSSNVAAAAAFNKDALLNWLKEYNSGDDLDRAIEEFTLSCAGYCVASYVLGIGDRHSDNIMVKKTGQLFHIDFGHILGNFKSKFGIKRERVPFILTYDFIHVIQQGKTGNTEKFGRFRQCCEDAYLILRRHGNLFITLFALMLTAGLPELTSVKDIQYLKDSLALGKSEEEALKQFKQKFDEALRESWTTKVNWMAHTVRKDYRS
Description for PI3K p110 beta/p85 alpha: Inhibition of recombinant human N-terminal His6-tagged full length p110beta/recombinant human full length p85alpha using PIP2 as substrate preincubated for 30 mins followed by substrate addition and HTRF assay

A word on the IC50: it is the concentration that inhibits the measured activity by half. In the case of `Cc1ccn2nc([C@H](C)Nc3ncnc(N)c3C#N)n(-c3ccccc3)c(=O)c12`, the IC50 in data set [1] is 65 nM; in data set [2], 1 nM; in data set [3], 2300 nM; against PI3K p110 beta/p85 alpha, 120 nM.
Consider `C[C@H](Nc1ncnc(N)c1C#N)c1nn2cccc2c(=O)n1-c1ccccc1`, for which the metabolised at 0.5 h, 5 µM in data set [4] came to 16%.
`Cc1ccn2nc([C@H](C)Nc3ncnc4[nH]cc(-c5cc(O)cc(F)c5)c34)n(-c3ccccc3)c(=O)c12`: the IC50 was found to be 0.6 nM in data set [1], 0.2 nM in data set [2], 9 nM in data set [3] and 2.3 nM against PI3K p110 beta/p85 alpha.
With `Cc1ccn2nc([C@H](C)Nc3ncnc(N)c3-c3cnc(N)nc3)n(-c3ccccc3)c(=O)c12`, the IC50 was determined as 120 nM in data set [1] and 360 nM against PI3K p110 beta/p85 alpha. In data set [5], the metabolised at 0.5 h, 5 µM stood at 27%. For the same compound, the metabolised at 2 h, 5 µM in data set [6] is 6%.
`Cc1ccn2nc([C@H](C)Nc3ncnc(N)c3-c3ccc4cc[nH]c4c3)n(-c3ccccc3)c(=O)c12`: the IC50 in data set [1] worked out at 420 nM; in data set [3], 8500 nM; against PI3K p110 beta/p85 alpha it was 140 nM. The metabolised at 0.5 h, 5 µM was 47% in data set [4] and 50% in data set [5]. Moreover, the metabolised at 2 h, 5 µM in data set [6] was found to be 9.6%.
For `Cc1ccn2nc([C@H](C)Nc3ncnc(N)c3Cc3cccc(O)c3)n(-c3ccccc3)c(=O)c12`, the IC50 in data set [2] came out at 22 nM; in data set [3], 6600 nM; against PI3K p110 beta/p85 alpha, 3000 nM.
`Cc1ccn2nc([C@H](C)Nc3ncnc(N)c3C(=O)Nc3cccc(O)c3)n(-c3ccccc3)c(=O)c12`: the IC50 in data set [1] worked out at 10 nM; in data set [2], 0.2 nM; in data set [3], 1400 nM; on PI3K p110 beta/p85 alpha, 39 nM. Besides, the metabolised at 0.5 h, 5 µM in data set [4] is 42%; in data set [5], 60%.
In the case of `Cc1ccn2nc([C@H](C)Nc3ncnc4[nH]cc(Cc5cccc(O)c5)c34)n(-c3ccccc3)c(=O)c12`, the IC50 was determined as 64 nM in data set [1], 1.4 nM in data set [2], 2900 nM in data set [3] and 210 nM against PI3K p110 beta/p85 alpha. In addition, the metabolised at 0.5 h, 5 µM in data set [4] amounted to 72%; in data set [5] it was 100%.
As for `Cc1ccn2nc([C@H](C)Nc3ncnc(N)c3-c3cc(O)cc(C(F)(F)F)c3)n(-c3ccccc3)c(=O)c12`, the IC50 amounted to 6.8 nM in data set [1], 0.2 nM in data set [2], 310 nM in data set [3] and 10 nM against PI3K p110 beta/p85 alpha.
In the case of `Cc1ccn2nc([C@H](C)Nc3ncnc4[nH]cc(-c5cn[nH]c5)c34)n(-c3ccccc3)c(=O)c12`, the metabolised at 0.5 h, 5 µM in data set [4] came to 21%; in data set [5] it was 97%. Further, the IC50 in data set [2] worked out at 0.4 nM; against PI3K p110 beta/p85 alpha, 4.3 nM.
In the case of `Cc1ccn2nc([C@H](C)Nc3ncnc4[nH]cc(Sc5cccc(O)c5)c34)n(-c3ccccc3)c(=O)c12`, the metabolised at 0.5 h, 5 µM in data set [4] worked out at 64%; in data set [5], 99%. Also, the metabolised at 2 h, 5 µM in data set [7] amounted to 74%; in data set [6], 84%. Moreover, the IC50 worked out at 1 nM in data set [2], 770 nM in data set [3] and 170 nM against PI3K p110 beta/p85 alpha.
`Cc1ccn2nc([C@H](C)Nc3ncnc(N)c3-c3cc(O)cc(F)c3)n(-c3ccccc3)c(=O)c12`: the IC50 in data set [1] was 40 nM; in data set [2], 0.6 nM; in data set [3], 1900 nM; at PI3K p110 beta/p85 alpha, 110 nM. Besides, the metabolised at 0.5 h, 5 µM in data set [4] is 75%; in data set [5] it was 84%. In addition, the results for the metabolised at 2 h, 5 µM in data set [7] and in data set [6] were 26% and 74%, respectively.
As to `Cc1ccn2nc([C@H](C)Nc3ncnc4[nH]cc(-c5cc(C(F)(F)F)ccc5O)c34)n(-c3ccccc3)c(=O)c12`, the IC50 stood at 3.3 nM in data set [1], 0.3 nM in data set [2], 250 nM in data set [3] and 7.3 nM against PI3K p110 beta/p85 alpha. The metabolised at 0.5 h, 5 µM in data set [4] came out at 21%; in data set [5] it was 58%.
Take `Cc1ccn2nc([C@H](C)Nc3ncnc4[nH]cc(-c5cccc6cc[nH]c56)c34)n(-c3ccccc3)c(=O)c12`: the IC50 in data set [2] came out at 1.3 nM; at PI3K p110 beta/p85 alpha, 79 nM.
`Cc1ccn2nc([C@H](C)Nc3ncnc(N)c3-c3ccc4oc(=O)[nH]c4c3)n(-c3ccccc3)c(=O)c12`: the IC50 was determined as 430 nM in data set [1], 11 nM in data set [2] and 1300 nM at PI3K p110 beta/p85 alpha.
For the compound `Cc1ccn2nc([C@H](C)Nc3ncnc4[nH]cc(-c5cnn(C)c5)c34)n(-c3ccccc3)c(=O)c12`, the IC50 was found to be 3.6 nM in data set [1], 0.2 nM in data set [2], 230 nM in data set [3] and 22 nM against PI3K p110 beta/p85 alpha. The metabolised at 0.5 h, 5 µM in data set [4] worked out at 36%; in data set [5], 91%. Besides, the metabolised at 2 h, 5 µM in data set [7] was determined as 6%; in data set [6] it was 91%.
Regarding `Cc1ccn2nc([C@H](C)Nc3ncnc(N)c3-c3cc(O)cc(Cl)c3)n(-c3ccccc3)c(=O)c12`, the values for the metabolised at 0.5 h, 5 µM in data set [4] and in data set [5] were 54% and 55%, respectively. The values for the metabolised at 2 h, 5 µM in data set [7] and in data set [6] were 83% and 97%, respectively. The IC50 is 0.2 nM in data set [2], 560 nM in data set [3] and 57 nM at PI3K p110 beta/p85 alpha.
As for `COc1cccc(-c2c[nH]c3ncnc(N[C@@H](C)c4nn5ccc(C)c5c(=O)n4-c4ccccc4)c23)c1O`, the IC50 is 81 nM in data set [1], 0.2 nM in data set [2], 760 nM in data set [3] and 14 nM against PI3K p110 beta/p85 alpha. Besides, the metabolised at 0.5 h, 5 µM in data set [4] is 58%; in data set [5], 99%. The metabolised at 2 h, 5 µM in data set [7] came out at 44%; in data set [6], 90%.
For `Cc1ccn2nc([C@H](C)Nc3ncnc(N)c3-c3ccc(O)cc3)n(-c3ccccc3)c(=O)c12`, the IC50 was 160 nM in data set [1], 22 nM in data set [2], 8400 nM in data set [3] and 1700 nM against PI3K p110 beta/p85 alpha. The metabolised at 0.5 h, 5 µM in data set [4] stood at 22%; in data set [5], 84%. Moreover, the values for the metabolised at 2 h, 5 µM in data set [7] and in data set [6] were 21% and 76%, respectively.
`Cc1ccn2nc([C@H](C)Nc3ncnc4[nH]cc(-c5cc(O)cc(NS(C)(=O)=O)c5)c34)n(-c3ccccc3)c(=O)c12`: the IC50 in data set [1] was 0.7 nM; in data set [2], 0.2 nM; in data set [3], 22 nM; against PI3K p110 beta/p85 alpha it was 2.5 nM. Moreover, the metabolised at 0.5 h, 5 µM amounted to 16% in data set [4] and 67% in data set [5]. Further, the metabolised at 2 h, 5 µM in data set [7] was found to be 28%; in data set [6], 94%.
For `Cc1ccn2nc([C@H](C)Nc3ncnc(N)c3Sc3cccc(O)c3)n(-c3ccccc3)c(=O)c12`, the IC50 is 45 nM in data set [1], 1.8 nM in data set [2], 8400 nM in data set [3] and 950 nM against PI3K p110 beta/p85 alpha. The results for the metabolised at 0.5 h, 5 µM in data set [4] and in data set [5] were 94% and 100%, respectively.
In the case of `Cc1ccn2nc([C@H](C)Nc3ncnc4[nH]cc(-c5cccc6[nH]ccc56)c34)n(-c3ccccc3)c(=O)c12`, the IC50 in data set [1] amounted to 17 nM; in data set [2], 0.2 nM; in data set [3], 410 nM; against PI3K p110 beta/p85 alpha, 12 nM. Further, the metabolised at 0.5 h, 5 µM in data set [4] is 74%; in data set [5], 92%.
Turning to `Cc1ccn2nc([C@H](C)Nc3ncnc(N)c3-c3cccc(NS(C)(=O)=O)c3)n(-c3ccccc3)c(=O)c12`, the IC50 in data set [1] is 1.7 nM; in data set [2] it was 0.3 nM; in data set [3], 730 nM; at PI3K p110 beta/p85 alpha it was 37 nM. The values for the metabolised at 0.5 h, 5 µM in data set [4] and in data set [5] were 32% and 97%, respectively.
With `COc1cc(-c2c[nH]c3ncnc(N[C@@H](C)c4nn5ccc(C)c5c(=O)n4-c4ccccc4)c23)ccc1O`, the IC50 in data set [1] was determined as 0.3 nM; in data set [2] it was 0.2 nM; in data set [3], 1.2 nM; against PI3K p110 beta/p85 alpha, 1.3 nM.
As for `Cc1ccn2nc([C@H](C)Nc3ncnc4[nH]cc(-c5cccc(NS(C)(=O)=O)c5)c34)n(-c3ccccc3)c(=O)c12`, the IC50 turned out to be 3.1 nM in data set [1], 0.3 nM in data set [2], 190 nM in data set [3] and 29 nM at PI3K p110 beta/p85 alpha. In addition, the metabolised at 0.5 h, 5 µM amounted to 23% in data set [4] and 74% in data set [5].
As to `Cc1ccn2nc([C@H](C)Nc3ncnc4[nH]cc(C(=O)Nc5cccc(O)c5)c34)n(-c3ccccc3)c(=O)c12`, the IC50 in data set [1] worked out at 13 nM; in data set [2], 2 nM; in data set [3], 1000 nM; at PI3K p110 beta/p85 alpha it was 230 nM.
For `Cc1ccn2nc([C@H](C)Nc3ncnc4[nH]cc(-c5cccc(F)c5O)c34)n(-c3ccccc3)c(=O)c12`, the IC50 stood at 12 nM in data set [1], 1.9 nM in data set [2], 1000 nM in data set [3] and 52 nM on PI3K p110 beta/p85 alpha. Also, the metabolised at 0.5 h, 5 µM in data set [4] came to 27%; in data set [5] it was 41%.
In the case of `Cc1ccn2nc([C@H](C)Nc3ncnc4[nH]cc(-c5ccccc5O)c34)n(-c3ccccc3)c(=O)c12`, the metabolised at 0.5 h, 5 µM in data set [4] turned out to be 72%; in data set [5], 99%. This compound also gave an IC50 in data set [2] of 5.1 nM.
For `Cc1ccn2nc([C@H](C)Nc3ncnc(N)c3-c3cc(O)cc(NS(C)(=O)=O)c3)n(-c3ccccc3)c(=O)c12`, the IC50 in data set [1] was 15 nM.
As for `Cc1ccn2nc([C@H](C)Nc3ncnc4[nH]cc(-c5ccc(O)cc5)c34)n(-c3ccccc3)c(=O)c12`, the IC50 in data set [1] amounted to 0.7 nM; in data set [2], 0.4 nM; in data set [3], 110 nM; against PI3K p110 beta/p85 alpha it was 4.1 nM.
